Measurements as given in ChEMBL document CHEMBL1201862, “PubChem BioAssay data set” (2004).
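Following 48 hours of exposure in 96-well plates, responses at five concentrations were used to interpolate endpoints linearly. GI50 is the concentration that inhibits growth by half.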 The source made the active and inactive calls. No stated cut-off is given here; in the data, active = GI50 up to about 1.1 µM and inactive = higher.

Legend:
Experiment in all cases: DTP human tumour cell line panel, 48 h
[1] = system: ACHN
[2] = system: SF-539
[3] = system: HCT-116
[4] = system: UO-31
[5] = system: IGROV-1
[6] = system: HL-60
[7] = system: HCC 2998
[8] = system: Malme-3M
[9] = system: M14
[10] = system: KM12
[11] = system: 786-0
[12] = system: SNB-75
[13] = system: RXF 393
[14] = system: LOX IMVI
[15] = system: A498
[16] = system: RXF 631
[17] = system: OVCAR-3
[18] = system: NCI-H23
[19] = system: UACC-257
[20] = system: SF-295
[21] = system: SNB-78
[22] = system: NCI-H522
[23] = system: NCI-H460
[24] = system: A549
[25] = system: DMS-273
[26] = system: NCI-H226
[27] = system: HOP-18
[28] = system: COLO 205
[29] = system: HT-29
[30] = system: HOP-62
[31] = system: SF-268
[32] = system: MOLT-4
[33] = system: RPMI-8226
[34] = system: HOP-92
[35] = system: SNB-19
[36] = system: SK-MEL-5
[37] = system: DLD-1
[38] = system: TK-10
[39] = system: SK-OV-3
[40] = system: EKVX
[41] = system: SK-MEL-2
[42] = system: HCT-15
[43] = system: M19-MEL
[44] = system: CAKI-1
[45] = system: KM-20L2
[46] = system: K562
[47] = system: SK-MEL-28
[48] = system: U-251
[49] = system: SN12C
[50] = system: CCRF-CEM
[51] = system: OVCAR-4
[52] = system: OVCAR-5
[53] = system: UACC-62
[54] = system: SW-620
[55] = system: OVCAR-8
[56] = system: SR
[57] = system: LXFL 529
[58] = system: DMS-114

O=C(CCCCCCCCC(=O)OCCCn1cc(C(=O)NC(=O)OCc2ccccc2)c(=O)[nH]c1=O)OCCCn1cc(C(=O)NC(=O)OCc2ccccc2)c(=O)[nH]c1=O
GI50 [1]: > 100 µM (inactive)
GI50 [2]: > 100 µM (inactive)
GI50 [3]: > 100 µM (inactive)
GI50 [4]: > 100 µM (inactive)
GI50 [5]: > 100 µM (inactive)
GI50 [6]: > 100 µM (inactive)
GI50 [7]: > 100 µM (inactive)
GI50 [8]: > 100 µM (inactive)
GI50 [9]: > 100 µM (inactive)
GI50 [10]: > 100 µM (inactive)
GI50 [11]: > 100 µM (inactive)
GI50 [12]: 54.1 µM (inactive)
GI50 [13]: > 100 µM (inactive)
GI50 [14]: > 100 µM (inactive)
GI50 [15]: > 100 µM (inactive)
GI50 [16]: > 100 µM (inactive)
GI50 [17]: > 100 µM (inactive)
GI50 [18]: > 100 µM (inactive)
GI50 [19]: > 100 µM (inactive)
GI50 [20]: > 100 µM (inactive)
GI50 [21]: > 100 µM (inactive)
GI50 [22]: > 100 µM (inactive)
GI50 [23]: > 100 µM (inactive)
GI50 [24]: > 100 µM (inactive)
GI50 [25]: > 100 µM (inactive)
GI50 [26]: > 100 µM (inactive)
GI50 [27]: > 100 µM (inactive)
GI50 [28]: > 100 µM (inactive)
GI50 [29]: > 100 µM (inactive)
GI50 [30]: > 100 µM (inactive)
GI50 [31]: > 100 µM (inactive)
GI50 [32]: > 100 µM (inactive)
GI50 [33]: > 100 µM (inactive)
GI50 [34]: > 100 µM (inactive)
GI50 [35]: > 100 µM (inactive)
GI50 [36]: > 100 µM (inactive)
GI50 [37]: > 100 µM (inactive)
GI50 [38]: > 100 µM (inactive)
GI50 [39]: > 100 µM (inactive)
GI50 [40]: > 100 µM (inactive)
GI50 [41]: > 100 µM (inactive)
GI50 [42]: > 100 µM
GI50 [43]: > 100 µM (inactive)
GI50 [44]: > 100 µM (inactive)
GI50 [45]: > 100 µM (inactive)
GI50 [46]: > 100 µM (inactive)
GI50 [47]: > 100 µM (inactive)
GI50 [48]: > 100 µM (inactive)
GI50 [49]: > 100 µM (inactive)
GI50 [50]: > 100 µM (inactive)
GI50 [51]: > 100 µM (inactive)
GI50 [52]: > 100 µM (inactive)
GI50 [53]: > 100 µM (inactive)
GI50 [54]: > 100 µM (inactive)
GI50 [55]: > 100 µM (inactive)

Cc1ccc(NC(=O)C(=O)CC(=O)c2c(C)[n+]([O-])c3ccccc3[n+]2[O-])cc1
GI50 [56]: 20.5 µM (inactive)
GI50 [1]: 26.2 µM (inactive)
GI50 [2]: 29.2 µM (inactive)
GI50 [3]: 18.6 µM (inactive)
GI50 [4]: > 100 µM (inactive)
GI50 [5]: 22 µM (inactive)
GI50 [6]: 19.3 µM (inactive)
GI50 [7]: 44 µM (inactive)
GI50 [8]: 27.9 µM (inactive)
GI50 [9]: 23.9 µM (inactive)
GI50 [10]: 29.2 µM (inactive)
GI50 [11]: 40.6 µM (inactive)
GI50 [12]: 23.6 µM (inactive)
GI50 [13]: 54.8 µM (inactive)
GI50 [14]: 20 µM (inactive)
GI50 [15]: > 100 µM (inactive)
GI50 [16]: 36.5 µM (inactive)
GI50 [17]: 12 µM (inactive)
GI50 [18]: 20.3 µM (inactive)
GI50 [19]: 24.2 µM (inactive)
GI50 [20]: 51.1 µM (inactive)
GI50 [57]: 35.2 µM (inactive)
GI50 [21]: 49.4 µM (inactive)
GI50 [22]: 20.9 µM (inactive)
GI50 [23]: 27.9 µM (inactive)
GI50 [24]: 31 µM (inactive)
GI50 [58]: 18.2 µM (inactive)
GI50 [25]: 25.9 µM (inactive)
GI50 [26]: > 100 µM (inactive)
GI50 [27]: 30.9 µM (inactive)
GI50 [28]: 23.9 µM (inactive)
GI50 [29]: 33.6 µM (inactive)
GI50 [30]: > 100 µM (inactive)
GI50 [31]: 35.8 µM (inactive)
GI50 [32]: 23.4 µM (inactive)
GI50 [33]: 24.4 µM (inactive)
GI50 [34]: 21.9 µM (inactive)
GI50 [35]: 54.1 µM (inactive)
GI50 [36]: 26.8 µM (inactive)
GI50 [38]: 91 µM (inactive)
GI50 [39]: 73.1 µM (inactive)
GI50 [40]: 16.9 µM (inactive)
GI50 [41]: 21 µM (inactive)
GI50 [42]: 31.8 µM
GI50 [43]: 16.4 µM (inactive)
GI50 [44]: 79.1 µM (inactive)
GI50 [45]: 30.8 µM (inactive)
GI50 [46]: 21.5 µM (inactive)
GI50 [47]: 46.6 µM (inactive)
GI50 [48]: 31 µM (inactive)
GI50 [49]: 36.5 µM (inactive)
GI50 [50]: 20.1 µM (inactive)
GI50 [51]: 22.6 µM (inactive)
GI50 [52]: 40.6 µM (inactive)
GI50 [53]: 17.7 µM (inactive)
GI50 [54]: 33.7 µM (inactive)
GI50 [55]: 22.8 µM (inactive)

O=C1CCCCC12CCC/C2=N\O (centres undefined)
GI50 [56]: > 100 µM (inactive)
GI50 [1]: > 100 µM (inactive)
GI50 [2]: > 100 µM (inactive)
GI50 [3]: > 100 µM (inactive)
GI50 [4]: > 100 µM (inactive)
GI50 [5]: > 100 µM (inactive)
GI50 [6]: > 100 µM (inactive)
GI50 [7]: > 100 µM (inactive)
GI50 [8]: > 100 µM (inactive)
GI50 [9]: > 100 µM (inactive)
GI50 [10]: > 100 µM (inactive)
GI50 [11]: > 100 µM (inactive)
GI50 [12]: > 100 µM (inactive)
GI50 [13]: > 100 µM (inactive)
GI50 [15]: > 100 µM (inactive)
GI50 [16]: > 100 µM (inactive)
GI50 [17]: > 100 µM (inactive)
GI50 [19]: > 100 µM (inactive)
GI50 [57]: > 100 µM (inactive)
GI50 [21]: > 100 µM (inactive)
GI50 [22]: > 100 µM (inactive)
GI50 [23]: > 100 µM (inactive)
GI50 [24]: > 100 µM (inactive)
GI50 [58]: > 100 µM (inactive)
GI50 [25]: > 100 µM (inactive)
GI50 [26]: > 100 µM (inactive)
GI50 [27]: > 100 µM (inactive)
GI50 [28]: > 100 µM (inactive)
GI50 [30]: > 100 µM (inactive)
GI50 [31]: > 100 µM (inactive)
GI50 [32]: > 100 µM (inactive)
GI50 [33]: > 100 µM (inactive)
GI50 [35]: > 100 µM (inactive)
GI50 [36]: > 100 µM (inactive)
GI50 [37]: > 100 µM (inactive)
GI50 [38]: > 100 µM (inactive)
GI50 [39]: > 100 µM (inactive)
GI50 [40]: > 100 µM (inactive)
GI50 [41]: > 100 µM (inactive)
GI50 [42]: > 100 µM
GI50 [43]: > 100 µM (inactive)
GI50 [44]: > 100 µM (inactive)
GI50 [45]: > 100 µM (inactive)
GI50 [46]: > 100 µM (inactive)
GI50 [47]: > 100 µM (inactive)
GI50 [48]: > 100 µM (inactive)
GI50 [49]: > 100 µM (inactive)
GI50 [50]: > 100 µM (inactive)
GI50 [51]: > 100 µM (inactive)
GI50 [53]: > 100 µM (inactive)
GI50 [54]: > 100 µM (inactive)
GI50 [55]: > 100 µM (inactive)
